In patent US8426612B2, “Synthesis of 3-{[(2R)-1-methylpyrrolidin-2-yl]methyl}-5[2-(phenylsulfonyl)ethyl]-1H-indole” (F.I.S. Fabbrica Italiana Sintetici S.p.A., priority 2009, dated 2013):

Key:
[1] = Prior-art experiments to convert Beta form to Alpha form or amorphous, repeated under exactly the same conditions; format: physicochemical; conditions: conditions of U.S. Pat. No. 6,110,940 (example 2) and WO2008/137134 (examples 16-19; 2, 7, 8, 12, 13)
Procedure: In addition, the same experiments described in U.S. Pat. No. 6,110,940 (example 2) and WO2008/137134 (examples 16, 17, 18, 19) to convert Eletriptan Beta form to Alpha form and those described in WO2008/137134 (examples 2, 7, 8, 12 and 13) to convert Eletriptan Beta form to amorphous were carried out on Eletriptan Hydrobromide form Beta of invention, applying exactly the same conditions. […] There results confirms the stability of Eletriptan hydrobromide Beta form of invention and his different behaviour in comparison with the same form described in the State of the Art.

[2] = Stability tests of Eletriptan hydrobromide Beta form polymorph in various solvents, temperatures and times; format: physicochemical; conditions: all experiments of the 1st table: various solvents, RT to 80° C. or heating, 5-48 hr; DSC trace
From the text: Eletriptan hydrobromide Beta form obtained according to the inventive process has been subject to a series of experiments to assess its stability against the conversion into Form Alpha of higher melting point or in amorphous.
These experiments have been performed in various solvents and at various temperature and time conditions. […] The DSC trace is the same for all the product prepared according to Example 18 and is the same of that of Beta polymorph.

[3] = Hygroscopicity test as described in the European Pharmacopoeia 5.0; format: physicochemical; conditions: 25° C., 80% rel. humidity, 24 h
Procedure: Eletriptan hydrobromide Beta stable form obtained according to the inventive process has been subject to the hygroscopicity test as described in the European Pharmacopoeia 5.0 (25° C., 80% rel. humidity, 24 h).

[4] = DSC study with heating/cooling cycles to convert Beta form to other forms; format: physicochemical
[5] = reported in U.S. Pat. No. 6,110,940; converts into Form Alpha; cited from earlier work

Br.CN1CCC[C@@H]1Cc1c[nH]c2ccc(CCS(=O)(=O)c3ccccc3)cc12 [Eletriptan hydrobromide Form Beta, 3-{[(2R)-1-methylpyrrolidin-2-yl]methyl}-5-[2-(phenylsulfonyl)ethyl]-1H-indole hydrobromide]
polymorphic form obtained [1]: provided only Eletriptan hydrobromide form Beta | stability against conversion into Form Alpha, amorphous or other forms [2]: did not convert into Form A, amorphous or other crystalline forms or in any hydrated form | hygroscopicity (classification) [3]: not hygroscopic | hygroscopicity (value) [3]: 0.1% | polymorphic form obtained [4]: provided always Form Beta

Br.CN1CCC[C@@H]1Cc1c[nH]c2ccc(CCS(=O)(=O)c3ccccc3)cc12 [Form Beta of Eletriptan hydrobromide]
stability of polymorph [5]: not stable
